Experimental data reported in article PMC2854715, “Oxpholipin 11D: An Anti-Inflammatory Peptide That Binds Cholesterol and Oxidized Phospholipids” (PLoS ONE, 2010).
“Also recorded” adds a separate entry of the source. Non-standard residues stand in square brackets, D forms with d. Residues, ends and D or L forms follow the SMILES beside them. dDip = N[C@@H](C(=O)O)C(c1ccccc1)c1ccccc1

Experiments:
[1] = SPR binding to 4β-hydroxycholesterol; conditions: peptide immobilized on CM5 chip, sterol in HBS-EP pH 7.4, mean ± SEM
Description: (§1) Binding experiments were done by surface plasmon resonance (SPR) on a BIAcore 3000 system (BiaCore AB, Piscataway, NJ). Peptide ligands and apoA-I were immobilized on a BIAcore CM5 sensor chip activated per the manufacturer's protocol with N-hydroxysuccinimide and 1-ethyl-3-(3-[…]) carbodiimide. After achieving adequate immobilization, the activated sensor surface was blocked with ethanolamine.
(§2) Lipid stock solutions were prepared in absolute ethanol and then diluted into a standard BIAcore buffer (HBS-EP), containing 10 mM HEPES, pH 7.4, 150 mM NaCl, 3 mM EDTA and 0.005% (v/v) surfactant P20. Lipid concentrations used in the binding studies were selected to give binding responses of 30-500 resonance units. Lipid stock solutions were prepared at 1 mg/ml in ethanol. […] Ethanol-free HBS-EP buffer was used during the dissociation phase. Lipid binding was measured by observing the change in the SPR angle as 150 µl of lipid analyte (various concentrations) in HBS-EP buffer flowed over the biosensor for 3 min at 50 µl/min. Biosensors were washed with 25 or 50% ethanol to regenerate them between binding studies. SPR data were corrected for background binding to the matrix of the chip (“blank” channel) and analyzed with BIAevaluation 4.1 software (Biacore, Piscataway, NJ).

[2] = SPR binding to 12(S)-HETE
Description: as §1, §2

apoE deficient mice = assay: In vivo activity in apoE deficient mice: HDL inflammatory index; conditions: 1 mg/kg subcutaneously, fasting female apoE deficient mice, HDL isolated 6 h after dose, normalized to LDL; Figure 3
Description: As previously described, [64], HAEC cells were treated with native LDL (250 µg/ml) in the absence or presence of HDL or tested peptides for 8 h. After these cultures were washed, the medium was replaced by fresh Medium 199 and the cultures were incubated for an additional 8 h. This culture medium was collected and assayed for monocyte chemotactic activity using chambers purchased from Neuroprobe (Cabin John, MD). After monocytes were added to the upper compartment, the chamber was incubated for 60 min at 37°C and subsequently disassembled. The membrane was rinsed, air dried, fixed with 1% glutaraldehyde, stained with 0.1% crystal violet dye, and 12 standardized high power fields were examined microscopically. The number of migrated monocytes was expressed as the mean ±SD of monocytes counted. Values obtained in the absence of HDL were normalized to a value of 1.0. Normalized values >1.0 after HDL addition were considered to be pro-inflammatory, and values <1.0 as being anti-inflammatory.
ApoE null mice on a C57BL/6J background, originally from Jackson Laboratories (Bar Harbor, ME), were maintained in a breeding colony in the Department of Laboratory and Animal Medicine at the David Geffen School of Medicine at UCLA. The mice were maintained on a chow diet (Ralston Purina, St. Louis, MO).
Six hours later, and with continued fasting, blood was removed from the retro-orbital sinus under mild isoflurane anesthesia, and anticoagulated with heparin (2.5 U/ml). Plasma was obtained and fractionated by FPLC. HDL-containing fractions were tested in HAEC cultures for their ability to inhibit LDL-induced monocyte chemotactic activity. All procedures conformed to regulations of the UCLA Animal Research Committee. An HDL inflammatory index was determined using the standard monocyte chemotaxis assay. Indices >1 were interpreted as pro-inflammatory, and indices <1 as anti-inflammatory.

[3] = SPR binding to 20(S)-hydroxycholesterol
Description: as §1, §2

SPR binding to 9(S)-HODE = assay: SPR binding to 9(S)-HODE
Description: as §1, §2

[4] = SPR binding to 24(S)-hydroxycholesterol
Description: as §1, §2

Bovine albumin = molecular target: T1, Bovine albumin (Bos taurus, UniProt P02769); assay: SPR binding to bovine albumin (control); conditions: peptide immobilized on CM5 chip, analyte in HBS-EP pH 7.4, mean ± SEM
T1 construct: purchased Sigma-Aldrich
Description: as §1, §2

[5] = SPR binding to 15(S)-HETE
Description: as §1, §2

[6] = SPR binding to linoleic acid
Description: as §1, §2

[7] = SPR binding to 15(S)-HPETE
Description: as §1, §2

[8] = SPR binding to arachidonic acid
Description: as §1, §2

[9] = SPR binding to 13(S)-HPODE
Description: as §1, §2

SPR binding to POVPC = assay: SPR binding to POVPC
Description: as §1, §2

SPR binding to PEIPC = assay: SPR binding to PEIPC
Description: as §1, §2

[10] = SPR binding to palmitic acid
Description: as §1, §2

[11] = SPR binding to 13(S)-HODE
Description: as §1, §2

[12] = SPR binding to 12(S)-HPETE
Description: as §1, §2

[13] = SPR binding to 5(S)-HPETE
Description: as §1, §2

SPR binding to PGPC = assay: SPR binding to PGPC
Description: as §1, §2

SPR binding to KOdiA-PC = assay: SPR binding to KOdiA-PC
Description: as §1, §2

[14] = SPR binding to cholesterol; conditions: peptide immobilized on CM5 chip, sterol in HBS-EP pH 7.4, mean ± SEM
Description: as §1, §2

[15] = SPR binding to 25-hydroxycholesterol; conditions: peptide immobilized on CM5 chip, sterol in HBS-EP pH 7.4, mean ± SEM
Description: as §1, §2

[16] = SPR binding to 22(S)-hydroxycholesterol
Description: as §1, §2

[17] = KD(D-4F)/KD(OxP-11D), >1: OxP-11D binds with higher affinity
[18] = SPR, peptide immobilized on CM5 chip, lipid in HBS-EP pH 7.4, mean ± SEM
[19] = SPR, peptide immobilized on CM5 chip, sterol in HBS-EP pH 7.4, mean ± SEM
[20] = based on the KD ratios of Table 3

T1 sequence (P02769 25-607): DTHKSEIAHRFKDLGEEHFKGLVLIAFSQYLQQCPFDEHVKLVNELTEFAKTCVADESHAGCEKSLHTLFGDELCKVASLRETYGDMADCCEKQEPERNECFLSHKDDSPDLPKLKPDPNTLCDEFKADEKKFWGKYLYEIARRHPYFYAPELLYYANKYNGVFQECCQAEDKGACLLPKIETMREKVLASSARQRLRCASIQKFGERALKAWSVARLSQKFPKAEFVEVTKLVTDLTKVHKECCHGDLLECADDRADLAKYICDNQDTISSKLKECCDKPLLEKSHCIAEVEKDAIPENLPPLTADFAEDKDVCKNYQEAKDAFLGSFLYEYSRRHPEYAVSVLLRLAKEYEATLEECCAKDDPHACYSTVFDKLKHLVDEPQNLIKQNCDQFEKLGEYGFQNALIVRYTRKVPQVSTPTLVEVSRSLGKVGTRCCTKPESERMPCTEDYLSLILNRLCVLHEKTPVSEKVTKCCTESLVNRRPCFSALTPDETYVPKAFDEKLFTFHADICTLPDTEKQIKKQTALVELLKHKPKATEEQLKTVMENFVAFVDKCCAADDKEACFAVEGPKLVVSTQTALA

CC(C)C[C@@H](NC(=O)CNC(=O)[C@H](NC(=O)[C@H](NC(=O)[C@@H](CCC(=O)O)NC(=O)[C@H](N)CCCNC(=N)N)C(c1ccccc1)c1ccccc1)[C@H](C)O)C(=O)N[C@H](C)C(=O)N[C@H](Cc1c[nH]c2ccccc12)C(=O)N[C@H](CCC(=O)O)C(=O)N[C@H](Cc1c[nH]c2ccccc12)C(=O)N[C@H](Cc1c[nH]c2ccccc12)C(=O)N[C@H](CCCNC(=N)N)C(=O)N[C@@H](C(=O)N[C@@H](C(N)=O)C(C)C)[C@H](C)O [OxP-11D] (H-[dR][dE][dDip][dT]G[dL][dA][dW][dE][dW][dW][dR][dT][dV]-NH2; N-terminus assumed)
KD ± SEM, 4β-hydroxycholesterol [1]: BND | D-4F/OxP-11D KD Ratio, 12(S)-HETE [2, 17]: 0.375 | Kd [2, 18]: 48 nM | HDL Inflammatory Index in vivo (apoE deficient mice): activity rivaled D-4F; also recorded: equally effective | D-4F/OxP-11D KD Ratio, 20(S)-hydroxycholesterol [3, 17]: 7.647 | Kd [3, 19]: 510 nM | D-4F/OxP-11D KD Ratio, 9(S)-HODE (SPR binding to 9(S)-HODE; [17]): 0.714 | Kd (SPR binding to 9(S)-HODE; [18]): 21 nM | D-4F/OxP-11D KD Ratio, 24(S)-hydroxycholesterol [4, 17]: 17.917 | Kd [4, 19]: 240 nM | Kd (Bovine albumin): 690 nM | D-4F/OxP-11D KD Ratio, 15(S)-HETE [5, 17]: 0.236 | Kd [5, 18]: 93 nM | D-4F/OxP-11D KD Ratio, linoleic acid [6, 17]: 0.025 | Kd [6, 18]: 600 nM | D-4F/OxP-11D KD Ratio, 15(S)-HPETE [7, 17]: 1.133 | Kd [7, 18]: 45 nM | D-4F/OxP-11D KD Ratio, arachidonic acid [8, 17]: 0.012 | Kd [8, 18]: 970 nM | D-4F/OxP-11D KD Ratio, 13(S)-HPODE [9, 17]: 0.677 | Kd [9, 18]: 31 nM | D-4F/OxP-11D KD Ratio, POVPC (SPR binding to POVPC; [17]): 0.008 | Kd (SPR binding to POVPC; [18]): 300 nM | D-4F/OxP-11D KD Ratio, PEIPC (SPR binding to PEIPC; [17]): 0.005 | Kd (SPR binding to PEIPC; SPR binding isotherm, Figure 5B, biosensor presented 4686 RU of OxP-11D): 12.4 ± 4.4 nM | D-4F/OxP-11D KD Ratio, palmitic acid [10, 17]: 2.030 | Kd [10, 18]: 330 nM | D-4F/OxP-11D KD Ratio, 13(S)-HODE [11, 17]: 2.895 | Kd [11, 18]: 3.8 nM | D-4F/OxP-11D KD Ratio, 12(S)-HPETE [12, 17]: 5.000 | Kd ([12]; SPR binding isotherm, Figure 5C, biosensor presented 4686 RU of OxP-11D): 34.4 ± 10.1 nM | Affinity for 12(S)-HPETE relative to affinity for arachidonic acid [12, 20]: approximately 28.5 fold | D-4F/OxP-11D KD Ratio, 5(S)-HPETE [13, 17]: 1.059 | Kd ([13]; SPR binding isotherm, Figure 5D, biosensor presented 4686 RU of OxP-11D): 16.9 ± 4.8 nM | Affinity for 5(S)-HPETE relative to affinity for arachidonic acid [13, 20]: approximately 57 fold | D-4F/OxP-11D KD Ratio, PGPC (SPR binding to PGPC; [17]): 0.002 | Kd (SPR binding to PGPC; [18]): 3200 nM | D-4F/OxP-11D KD Ratio, KOdiA-PC (SPR binding to KOdiA-PC; [17]): 0.003 | Kd (SPR binding to KOdiA-PC; [18]): 190 nM | Kd [14]: 360 nM | KD ± SEM, 25-hydroxycholesterol [15]: BND | D-4F/OxP-11D KD Ratio, 22(S)-hydroxycholesterol [16, 17]: 33.333 | Kd [16, 19]: 450 nM
